Measured values as given in paper PMC10056443, “Derivatives of Amaryllidaceae Alkaloid Ambelline as Selective Inhibitors of Hepatic Stage of Plasmodium berghei Infection In Vitro” (Pharmaceutics, 2023).
Like-named read-outs stand apart in the source and are kept apart here.

Tests used:
[1] = system: hepatic stage of P. berghei; assay: In vitro activity against P. berghei hepatic stages (luciferase-expressing sporozoites in Huh-7 cells, bioluminescence); format: cell-based, Plasmodium berghei; settings: for activity at 1 µM / activity at 10 µM / IC50: Plasmodium berghei; for activity at 1 µM / activity at 10 µM: Huh-7, 48 h, DMSO = 100, read-out: INFECTION Ø screening
Procedure: Activity against the hepatic stage of P. berghei infection was assessed using the human hepatoma cell line Huh-7 (deposited at the Japanese Collection of Research Bioresources under JCRB0403). The protocol was previously comprehensively described by Prudêncio et al. and by Ploemen et al.. […] Cells were seeded in 96-well plates at a density of 1 × 10^4 cells per well in 100 µL of culture medium and incubated at 37 °C with 5% CO2 for approximately 18 h. […] The culture medium was substituted by infection medium with diluted compounds 1 hour in advance of infection. Luciferase-expressing P. berghei sporozoites (PbA-LuciGFPcon spz) were freshly obtained through the dissection of salivary glands from infected female Anopheles stephensi mosquitoes. Sporozoites were added to the cells at 1:1 ratio, i.e., 1 × 10^4 sporozoites were added per well, and then subjected to centrifugation at 1800× g for 5 min. The plate was then incubated for 46 h at 37 °C with 5% CO2, at which time Huh-7 cell confluency was indirectly assessed by the alamarBlue assay (Invitrogen, Waltham, MA, USA), as reported in the manufacturer’s protocol. Parasite load was assessed 48 h post-infection by a bioluminescence assay, as reported by the manufacturer (Biotium, Fremont, CA, USA). GraphPad Prism 8 (GraphPad Software, Inc., La Jolla, CA, USA) was used to obtain IC50 values using nonlinear regression analysis to fit the dose-response curves normalized results.

[2] = system: P. falciparum NF54 ring-stage synchronized cultures; assay: In vitro activity against P. falciparum blood stages (flow cytometry, SYBR green I); format: cell-based, Plasmodium falciparum; settings: Control = 7.76333, 48 h
Procedure: Activity against the blood stage of P. falciparum infection was assessed by flow cytometry analysis following the incubation of either test compounds or the drug vehicle (DMSO) with ring-stage synchronized parasite cultures, as previously described. Stock solutions of the test compounds, as well as of the positive control compound chloroquine, were prepared in DMSO and diluted to test concentrations in complete malaria culture medium (CMCM), i.e., 1640 RPMI medium supplemented with 25 mM HEPES, 2.4 mM L-glutamine, 50 µg/mL gentamicin, 0.5% w/v Albumax, 11 mM glucose, 1.47 mM hypoxanthine, and 37.3 mM NaHCO3. Samples at tested concentration were then incubated with ring-stage synchronized cultures of P. falciparum NF54 at 2.5% hematocrit and at approximately 1% parasitemia in 96-well plates at 37 °C in a 5% CO2 and 5% O2 atmosphere. Forty-eight hours post incubation, parasite load was assessed by flow cytometry, upon staining with the DNA-specific dye SYBR green I. Approximately 100,000 events were analyzed in each flow cytometry measurement.

[3] = system: Huh-7 cell line; assay: Huh-7 cell confluency by alamarBlue assay during hepatic-stage test; format: cell-based; settings: human, 46 h, pH 7
Procedure: Activity against the hepatic stage of P. berghei infection was assessed using the human hepatoma cell line Huh-7 (deposited at the Japanese Collection of Research Bioresources under JCRB0403). The protocol was previously comprehensively described by Prudêncio et al. and by Ploemen et al.. Briefly, cell culture medium consisted of 1640 RPMI medium supplemented with 10% v/v fetal calf serum, 1% v/v L-glutamine, 1% v/v nonessential amino acids, 1% v/v penicillin/streptomycin, and 10 mM HEPES, pH 7. Cells were seeded in 96-well plates at a density of 1 × 10^4 cells per well in 100 µL of culture medium and incubated at 37 °C with 5% CO2 for approximately 18 h. […] The culture medium was substituted by infection medium with diluted compounds 1 hour in advance of infection. Luciferase-expressing P. berghei sporozoites (PbA-LuciGFPcon spz) were freshly obtained through the dissection of salivary glands from infected female Anopheles stephensi mosquitoes. Sporozoites were added to the cells at 1:1 ratio, i.e., 1 × 10^4 sporozoites were added per well, and then subjected to centrifugation at 1800× g for 5 min. The plate was then incubated for 46 h at 37 °C with 5% CO2, at which time Huh-7 cell confluency was indirectly assessed by the alamarBlue assay (Invitrogen, Waltham, MA, USA), as reported in the manufacturer’s protocol. Parasite load was assessed 48 h post-infection by a bioluminescence assay, as reported by the manufacturer (Biotium, Fremont, CA, USA). GraphPad Prism 8 (GraphPad Software, Inc., La Jolla, CA, USA) was used to obtain IC50 values using nonlinear regression analysis to fit the dose-response curves normalized results.

[4] = Cytotoxicity assessment in vitro (MTT assay); format: cell-based; settings: human
Procedure: (§1) HepG2 cells of human hepatocellular carcinoma (ATCC HB-8065; passage 20–25), purchased from Health Protection Agency Culture Collections (ECACC, Salisbury, UK), were cultured in Minimum Essential Medium Eagle supplemented with 10% v/v fetal bovine serum and 1% v/v L-glutamine solution (Sigma-Aldrich, St. Louis, MO, USA) at 37 °C in a humidified atmosphere containing 5% CO2. For passaging, the cells were treated with trypsin/EDTA (Sigma-Aldrich, St. Louis, MO, USA) at 37 °C and then harvested. For the cytotoxicity evaluation, the cells treated with the test substances were used, while untreated HepG2 cells served as a control group. The cells were seeded in a 96-well plate at a density of 1 × 10^4 cells per well and incubated for 24 h. All tested compounds were dissolved in DMSO to prepare 10 mM stock solutions and diluted to the desired concentration just before the cell treatment. Cytotoxicity of all studied derivatives was screened at 10 μM concentration, and all samples were measured in triplicates. Positive and negative controls were also included. Plates were incubated for 24 h in a humidified atmosphere containing 5% CO2 at 37 °C. After the incubation, a solution of thiazolyl blue tetrazolium bromide (Sigma-Aldrich, St. Louis, MO, USA) in RPMI 1640 medium without phenol red (BioTech, Prague, Czech Republic) was added and incubated for 3 h in a humidified atmosphere containing 5% CO2 at 37 °C. Afterwards, formazan crystals were dissolved in DMSO, and the absorbance of samples was recorded at 570 nm (Synergy Neo2 Multi-Mode Reader NEO2SMALPHAB; BioTek, Winooski, VT, USA).

[5] = system: HepG2 cells; assay: Cytotoxicity assessment in vitro (MTT assay); format: cell-based; settings: human, 24 h, 10 µM
Procedure: as §1

[6] = Huh-7, mean, unit (Table 1: µM), read-out: Antiplasmodial activity - Ø IC50
[7] = Huh-7, replicate 1, unit (Table 1: µM), read-out: Antiplasmodial activity - IC50 determination, 1. measurement
[8] = Huh-7, replicate 2, unit (Table 1: µM), read-out: Antiplasmodial activity - IC50 determination, 2. measurement
[9] = hepatic stage, Huh-7 cells, parasite load 48 h post-infection, read-out: IC50 P. berghei
[10] = Huh-7, replicate 3, unit (Table 1: µM), read-out: Antiplasmodial activity - IC50 determination, 3. measurement

| SMILES | activity at 1 µM [1] | activity at 10 µM [1] | IC50 [1, 6] | IC50 [1, 7] | IC50 [1, 8] | IC50 [1, 9] | Ø screening, blood stage parasite load ([2]; at 10 nM) | Ø screening, blood stage parasite load ([2]; at 500 nM) | Ø screening, blood stage parasite load ([2]; at 100 nm) | CELL CONFLUENCY Ø screening ([3]; 1 µM) | CELL CONFLUENCY Ø screening ([3]; 10 µM) | viability at 24 h, 10 µM [4] | 1. screening of cytotoxic potential, HepG2 cell line [5] | 2. screening of cytotoxic potential, HepG2 cell line [5] | 3. screening of cytotoxic potential, HepG2 cell line [5] | Ø screening, HepG2 (sheet Graphs) [5] | IC50 [1, 10] | activity against P. berghei hepatic stages ([1]; screening at 10 and 1 µM / IC50 determination) |
| --- | --- | --- | --- | --- | --- | --- | --- | --- | --- | --- | --- | --- | --- | --- | --- | --- | --- | --- |
| COc1c2c(cc3c1OCO3)[C@]13C=C[C@H](OC)C[C@H]1N(C2)C[C@H]3OC(=O)c1ccc(C)cc1 [28g, 11-O-(4-Methylbenzoyl)ambelline] | 23.1% | 0.21% | 0.402 µM | 0.345 µM | 0.46 µM | 0.402 ± 0.081 µM | 5.187 | 4.26 | 4.963 | 89.36 | 93.96 | 50 ± 6% | 50.18 | 56.25 | 43.46 | 49.96 | – | – |
| COc1c2c(cc3c1OCO3)[C@]13C=C[C@H](OC)C[C@H]1N(C2)C[C@H]3OC(=O)c1ccccc1 [28e, 11-O-Benzoylambelline] | 45.7% | 2.18% | 0.726 µM | 0.662 µM | 0.646 µM | 0.726 ± 0.126 µM | 7.597 | 7.383 | 7.907 | 94.15 | 86.56 | 95 ± 7% | 98.77 | 99.24 | 87.15 | 95.05 | 0.871 µM | – |
| COc1c2c(cc3c1OCO3)[C@]13C=C[C@H](OC)C[C@H]1N(C2)C[C@H]3OC(=O)C(C)C [28c, 11-O-Isobutanoylambelline] | 89.1% | 59.8% | – | 15.5 µM | 14.4 µM | > 10 µM | 7.643 | 7.21 | 8.26 | 94.69 | 93.64 | 95 ± 6% | 97.78 | 100.15 | 88.22 | 95.38 | – | – |
| COc1c2c(cc3c1OCO3)[C@]13C=C[C@H](OC)C[C@H]1N(C2)C[C@H]3OC(=O)c1ccc(C)c([N+](=O)[O-])c1 [28r, 11-O-(4-Methyl-3-nitrobenzoyl)ambelline] | 22.2% | 1.01% | 0.41 µM | 0.358 µM | 0.408 µM | 0.41 ± 0.054 µM | 8.177 | 7.467 | 7.743 | 94.75 | 52.08 | 65 ± 8% | 69.43 | 55.1 | 69.8 | 64.78 | 0.465 µM | – |
| COc1c2c(cc3c1OCO3)[C@]13C=C[C@H](OC)C[C@H]1N(C2)C[C@H]3OC(=O)c1ccc(Cl)c([N+](=O)[O-])c1 [28t, 11-O-(4-Chloro-3-nitrobenzoyl)ambelline] | 114% | 92.6% | – | – | – | – | 7.33 | 7.613 | 7.113 | 96.94 | 92.83 | 15 ± 2% | 13.64 | 17.76 | 14.19 | 15.2 | – | not dose-dependent |
| CCC(=O)O[C@@H]1CN2Cc3c(cc4c(c3OC)OCO4)[C@@]13C=C[C@H](OC)C[C@@H]23 [28b, 11-O-Propionylambelline] | 77.6% | 64.5% | – | – | – | > 10 µM | 8.397 | 7.243 | 7.813 | 98.41 | 102.4 | 58 ± 4% | 62.58 | 57.25 | 55.25 | 58.36 | – | – |
| CCCCC(=O)O[C@@H]1CN2Cc3c(cc4c(c3OC)OCO4)[C@@]13C=C[C@H](OC)C[C@@H]23 [28d, 11-O-Pentanoylambelline] | 93.9% | 25.2% | 4.08 µM | 5.65 µM | 2.14 µM | 4.08 ± 1.78 µM | 6.99 | 6.78 | 7.043 | 95.31 | 93.14 | 71 ± 7% | 73.78 | 63.13 | 76.88 | 71.26 | 4.44 µM | – |
